Measurements from patent US20040254173A1, “Modulation of dopamine responses with substituted (S)-2,3-benzodiazepines” (priority 2003, published 2004).

Test system: apomorphine-induced hypothermia, stereotypies and climbing
Assay: Low Dose Apomorphine Test in the mouse
Type: in vivo
Conditions: for STEREOTYPY (intensity score), 20 min after apomorphine, mean ± s.e.m. / STEREOTYPY (intensity score), 50 min after apomorphine, mean ± s.e.m.: 4 point scale (0-3); for CLIMBING (No. of mice), 20 minutes after apomorphine / CLIMBING (No. of mice), 50 minutes after apomorphine: 6 mice per group; for Rectal Temperature, 30 min after apomorphine, mean change from control / Rectal Temperature, 60 min after apomorphine, mean change from control / STEREOTYPY (intensity score), 20 min after apomorphine, mean change from control / STEREOTYPY (intensity score), 50 min after apomorphine, mean change from control: vs vehicle; for Rectal Temperature, before apomorphine, mean ± s.e.m.: 30 min after test substance
From the text: Racemic tofisopam, (R)-tofisopam and (S)-tofisopam were investigated in the Low Dose Apomorphine Test in the mouse to evaluate their pro- or anti-dopaminergic activity following intraperitoneal (i.p.) administration of apomorphine. Apomorphine, at a low dose, induces hypothermia, stereotypies and climbing. All three of these symptoms are potentiated by dopaminergic agonists and antagonized by dopamine antagonists, such as classical neuroleptics. The Low Dose Apomorphine Test, thus serves to detect pro- or antidopaminergic activity. The test was performed according to the protocols described by Chermat and Poncelet. See, Chermat R., Poncelet M., “Antagonisme des redressements, des stéréotypies et de l'hypotheimie induits par 1 ou 16 mg.kg-1 d'apomorphine,” J. Pharmacol., 14, 93-97, 1983.
Male mice of Rj: NMRI strain, 23-26 g body weight range were supplied by Elevage Janvier, 53940 Le Genest-Saint-Isle, France. The animals were delivered to the laboratory at least 3 days before the experiment and, upon arrival, were housed 10 per cage in macrolon cages (25×19×13 cm) containing wood shavings (Litalabo-SPPS, 95100 Argenteuil, France) with free access to food (UAR 113-UAR, 91360 Epinay-sur-Orge, France) and tap water (i.e. non-fasted) until tested. The animal house was maintained under artificial lighting (12 hours) between 7.00 and 19.00 in a controlled ambient temperature of 21±1° C., and relative humidity maintained at 40-70%.
The different treatments were equally distributed between the animals. During the experiment, each animal within a cage received the same treatment. Animals within a cage were individually marked on the tail with an indelible pen.
The experiment was conducted blind with treatment vials labeled A, B, C etc., according to a standardized coding procedure. The evaluation of the different treatments was balanced over time by testing successive series of individual animals from each treatment group in a fixed rotation (A, B, C, etc.). Animals were sacrificed at the end of the experiment by exposure to CO2.
Three compounds, racemic tofisopam, (R)-tofisopam and (S)-tofisopam were tested in the Low Dose Apomorphine Test. Each of these three compounds was dosed as a dispersion in 0.2% hydroxypropylmethylcellulose (HPMC) (Sigma), in sterile physiological saline (Laboratoire Aguettant).
Two reference standards were also dosed. Bromocriptine, methanesulfonate (Sigma), a known dopamine agonist, and haloperidol (Sigma), a known dopamine antagonist, were dispersed in 0.2% HPMC in sterile physiological saline.
Apomorphine hydrochloride, the dopamine mimetic employed in the assay, was dissolved in water for injectable preparation (Laboratoire Aguettant). Dosing: All of the dosed substances were administered in a volume of 10 ml/kg. The doses are expressed in mg/kg of supplied substance.
6 mice were studied per group. The test was performed blind.
Racemic tofisopam, (R)-tofisopam and (S)-tofisopam were administered at doses of 16, 32 and 64 mg/kg, administered intraperitonealy (i.p.), 30 minutes prior to administration of apomorphine.
The rectal temperature of the mice was measured prior to apomorphine dosing using a rectal probe (Physitemp Instruments Digital Laboratory Thermometer Model BAT-12). The mice were then placed in individual Plexiglas cages (10×6×4 cm) attached with the opening against a vertical wire grid.
The mice were then injected subcutaneously (s.c.) with apomorphine (1 mg/kg). Rectal temperature was measured 30 and 60 minutes after the injection of apomorphine.
The intensity of stereotypies (sniffing, licking, gnawing), were scored at 20 minutes and 50 minutes after injection of apomorphine on a 4 point scale (0-3). The presence (1) or absence (0) of climbing against the wire grid wall, were also assessed 20 and 50 minutes after injection of apomorphine.
The reference standards bromocriptine (16 mg/kg) and haloperidol (0.5 mg/kg), were administered under the same experimental conditions.

[1] = 16 mg/kg i.p. 30 min before apomorphine 1 mg/kg s.c.
[2] = 16 mg/kg i.p. 30 min before apomorphine 1 mg/kg s.c., mouse
[3] = 32 mg/kg i.p. 30 min before apomorphine 1 mg/kg s.c.
[4] = 32 mg/kg i.p. 30 min before apomorphine 1 mg/kg s.c., mouse
[5] = 64 mg/kg i.p. 30 min before apomorphine 1 mg/kg s.c.
[6] = 64 mg/kg i.p. 30 min before apomorphine 1 mg/kg s.c., mouse

Compound | STEREOTYPY (intensity score), 20 min after apomorphine, mean ± s.e.m. [1] | STEREOTYPY (intensity score), 50 min after apomorphine, mean ± s.e.m. [1] | CLIMBING (No. of mice), 20 minutes after apomorphine [1] | CLIMBING (No. of mice), 50 minutes after apomorphine [1] | Rectal Temperature, 30 min after apomorphine, mean ± s.e.m. [2] | Rectal Temperature, 60 min after apomorphine, mean ± s.e.m. [2] | Rectal Temperature, 30 min after apomorphine, mean change from control [1] | Rectal Temperature, 60 min after apomorphine, mean change from control [1] | STEREOTYPY (intensity score), 20 min after apomorphine, mean change from control [1] | STEREOTYPY (intensity score), 50 min after apomorphine, mean change from control [1] | Rectal Temperature, before apomorphine, mean ± s.e.m. (16 mg/kg i.p., mouse) | STEREOTYPY (intensity score), 20 min after apomorphine, mean ± s.e.m. [3] | STEREOTYPY (intensity score), 50 min after apomorphine, mean ± s.e.m. [3] | CLIMBING (No. of mice), 20 minutes after apomorphine [3] | CLIMBING (No. of mice), 50 minutes after apomorphine [3] | Rectal Temperature, 30 min after apomorphine, mean ± s.e.m. [4] | Rectal Temperature, 60 min after apomorphine, mean ± s.e.m. [4] | Rectal Temperature, 30 min after apomorphine, mean change from control [3] | Rectal Temperature, 60 min after apomorphine, mean change from control [3] | STEREOTYPY (intensity score), 20 min after apomorphine, mean change from control [3] | other results
CC[C@H]1C(C)=NN=C(c2ccc(OC)c(OC)c2)c2cc(OC)c(OC)cc21 [(R)-tofisopam, (R)-1-(3,4-dimethoxyphenyl)-4-methyl-5-ethyl-7,8-dimethoxy-5H-2,3-benzodiazepine] | 2.8 ± 0.2 | 1.0 ± 0.3 | 6 No. of mice | 5 No. of mice | 35.1 ± 0.3 °C | 36.9 ± 0.2 °C | 0.0 °C | +0.2 °C | +0.6 | 0.0 | 37.3 ± 0.1 °C | 2.2 ± 0.2 | 1.0 ± 0.3 | 6 No. of mice | 4 No. of mice | 34.6 ± 0.4 °C | 36.6 ± 0.2 °C | −0.5 °C | −0.1 °C | 0.0 | STEREOTYPY (intensity score), 50 min after apomorphine, mean change from control [3]: 0.0; Rectal Temperature, before apomorphine, mean ± s.e.m. (32 mg/kg i.p., mouse): 37.1 ± 0.1 °C; STEREOTYPY (intensity score), 20 min after apomorphine, mean ± s.e.m. [5]: 1.5 ± 0.6; STEREOTYPY (intensity score), 50 min after apomorphine, mean ± s.e.m. [5]: 1.2 ± 0.3; CLIMBING (No. of mice), 20 minutes after apomorphine [5]: 3 No. of mice; CLIMBING (No. of mice), 50 minutes after apomorphine [5]: 2 No. of mice; Rectal Temperature, 30 min after apomorphine, mean ± s.e.m. [6]: 35.1 ± 0.4 °C; Rectal Temperature, 60 min after apomorphine, mean ± s.e.m. [6]: 36.5 ± 0.4 °C; Rectal Temperature, 30 min after apomorphine, mean change from control [5]: 0.0 °C; Rectal Temperature, 60 min after apomorphine, mean change from control [5]: −0.2 °C; STEREOTYPY (intensity score), 20 min after apomorphine, mean change from control [5]: −0.7; STEREOTYPY (intensity score), 50 min after apomorphine, mean change from control [5]: +0.2; Rectal Temperature, before apomorphine, mean ± s.e.m. (64 mg/kg i.p., mouse): 37.2 ± 0.1 °C; effect on apomorphine-induced hypothermia (16, 32 and 64 mg/kg i.p., mouse): did not affect; effect on apomorphine-induced hypothermia, stereotypies or climbing (dose-range tested (16, 32, 64 mg/kg i.p.)): did not affect
CC[C@@H]1C(C)=NN=C(c2ccc(OC)c(OC)c2)c2cc(OC)c(OC)cc21 [(S)-tofisopam, (S)-1-(3,4-dimethoxyphenyl)-4-methyl-5-ethyl-7,8-dimethoxy-5H-2,3-benzodiazepine] | 3.0 ± 0.0 | 0.7 ± 0.2 | 6 No. of mice | 3 No. of mice | 34.8 ± 0.4 °C | 37.2 ± 0.2 °C | −0.3 °C | +0.5 °C | +0.8 | −0.3 | 37.2 ± 0.3 °C | 2.3 ± 0.3 | 0.3 ± 0.2 | 6 No. of mice | 2 No. of mice | 34.4 ± 0.3 °C | 36.6 ± 0.2 °C | −0.7 °C | −0.1 °C | +0.1 | behaviour on apomorphine-induced hypothermia (rectal temperature) (16 mg/kg, sixty minutes after apomorphine, slight but statistically significant elevation in temperature): weak dopamine antagonist; behaviour on apomorphine-induced stereotypies (16 mg/kg, twenty minute time point): strong dopamine agonist; STEREOTYPY (intensity score), 50 min after apomorphine, mean change from control [3]: −0.7; Rectal Temperature, before apomorphine, mean ± s.e.m. (32 mg/kg i.p., mouse): 37.0 ± 0.2 °C; STEREOTYPY (intensity score), 20 min after apomorphine, mean ± s.e.m. [5]: 0.2 ± 0.2; STEREOTYPY (intensity score), 50 min after apomorphine, mean ± s.e.m. [5]: 0.2 ± 0.2; CLIMBING (No. of mice), 20 minutes after apomorphine [5]: 0+ No. of mice; CLIMBING (No. of mice), 50 minutes after apomorphine [5]: 0 No. of mice; Rectal Temperature, 30 min after apomorphine, mean ± s.e.m. [6]: 33.6 ± 0.7 °C; Rectal Temperature, 60 min after apomorphine, mean ± s.e.m. [6]: 33.3 ± 1.0 °C; Rectal Temperature, 30 min after apomorphine, mean change from control [5]: −1.5 °C; Rectal Temperature, 60 min after apomorphine, mean change from control [5]: −3.4 °C; STEREOTYPY (intensity score), 20 min after apomorphine, mean change from control [5]: −2.0; STEREOTYPY (intensity score), 50 min after apomorphine, mean change from control [5]: −0.8; Rectal Temperature, before apomorphine, mean ± s.e.m. (64 mg/kg i.p., mouse): 37.2 ± 0.2 °C; behaviour on apomorphine-induced stereotypies and climbing (64 mg/kg, twenty and fifty minute time points): strong dopamine antagonist; behaviour on apomorphine-induced hypothermia (rectal temperature) (higher doses (32, 64 mg/kg), thirty and sixty minute time points, lowering the rectal temperature): dopamine antagonism
